# Results from PubChem BioAssay (NCI).
#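 Cultured in 96-well plates, cells were exposed to test compound for 48 hours across five concentrations. The concentration for full growth arrest is given as TGI.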
# Columns and labels:
# Test in all cases: inhibition of tumour cell growth, NCI panel, 48 h
# HS 578T breast = test system: HS 578T breast
# SF-295 CNS = test system: SF-295 CNS
# A498 renal = test system: A498 renal
# OVCAR-8 ovarian = test system: OVCAR-8 ovarian
# SK-OV-3 ovarian = test system: SK-OV-3 ovarian
# UO-31 renal = test system: UO-31 renal
# M14 melanoma = test system: M14 melanoma
# HOP-62 NSCLC = test system: HOP-62 NSCLC
# SNB-19 CNS = test system: SNB-19 CNS
# HCC-2998 colon = test system: HCC-2998 colon
# NCI-H23 lung = test system: NCI-H23 lung
# PC-3 prostate = test system: PC-3 prostate
# SN12C renal = test system: SN12C renal
# 786-0 renal = test system: 786-0 renal
# HL-60(TB) leukemia = test system: HL-60(TB) leukemia
# SK-MEL-5 melanoma = test system: SK-MEL-5 melanoma
# NCI-H522 lung = test system: NCI-H522 lung
# SNB-75 CNS = test system: SNB-75 CNS
# MDA-N = test system: MDA-N
# U251 CNS = test system: U251 CNS
# SW-620 colon = test system: SW-620 colon
# HT29 colon = test system: HT29 colon
# SK-MEL-28 melanoma = test system: SK-MEL-28 melanoma
# BT-549 breast = test system: BT-549 breast
# A549 NSCLC = test system: A549 NSCLC
# MALME-3M melanoma = test system: MALME-3M melanoma
# NCI-H460 lung = test system: NCI-H460 lung
# CAKI-1 renal = test system: CAKI-1 renal
# SF-539 CNS = test system: SF-539 CNS
# HCT-116 colon = test system: HCT-116 colon
# OVCAR-5 ovarian = test system: OVCAR-5 ovarian
# TK-10 renal = test system: TK-10 renal
# K-562 leukemia = test system: K-562 leukemia
# SF-268 CNS = test system: SF-268 CNS
# MDA-MB-435 = test system: MDA-MB-435
# MOLT-4 leukemia = test system: MOLT-4 leukemia
# KM12 colon = test system: KM12 colon
# OVCAR-3 ovarian = test system: OVCAR-3 ovarian
# MCF7 breast = test system: MCF7 breast
# LOX IMVI melanoma = test system: LOX IMVI melanoma
# DU-145 prostate = test system: DU-145 prostate
# T-47D breast = test system: T-47D breast
# RPMI-8226 leukemia = test system: RPMI-8226 leukemia
# MDA-MB-231 breast = test system: MDA-MB-231 breast
# NCI/ADR-RES ovarian = test system: NCI/ADR-RES ovarian
# ACHN renal = test system: ACHN renal
# CCRF-CEM leukemia = test system: CCRF-CEM leukemia
# OVCAR-4 ovarian = test system: OVCAR-4 ovarian
# UACC-62 melanoma = test system: UACC-62 melanoma
# HOP-92 NSCLC = test system: HOP-92 NSCLC
# IGROV1 ovarian = test system: IGROV1 ovarian
# EKVX NSCLC = test system: EKVX NSCLC
# SR leukemia = test system: SR leukemia
# COLO 205 colon = test system: COLO 205 colon
# UACC-257 melanoma = test system: UACC-257 melanoma
# NCI-H226 lung = test system: NCI-H226 lung
# RXF 393 renal = test system: RXF 393 renal
# HCT-15 colon = test system: HCT-15 colon
# SK-MEL-2 melanoma = test system: SK-MEL-2 melanoma
smiles,measurement,setting,value
COC(=O)c1c2c(c3[nH]c4ccccc4c3c1C(=O)OC)C(=O)C1=C(C2=O)C2(Cl)C(Cl)C(Cl)C1(Cl)C2(Cl)Cl (stereo unspecified),TGI,HS 578T breast,20.8 µM
same,TGI,SF-295 CNS,90.9 µM
same,TGI,A498 renal,3.03 µM
same,TGI,OVCAR-8 ovarian,5.28 µM
same,TGI,SK-OV-3 ovarian,37 µM
same,TGI,UO-31 renal,8.65 µM
same,TGI,M14 melanoma,5.68 µM
same,TGI,HOP-62 NSCLC,21.7 µM
same,TGI,SNB-19 CNS,24.7 µM
same,TGI,HCC-2998 colon,6.17 µM
same,TGI,NCI-H23 lung,4.04 µM
same,TGI,PC-3 prostate,10.8 µM
same,TGI,SN12C renal,5.98 µM
same,TGI,786-0 renal,8.07 µM
same,TGI,HL-60(TB) leukemia,7.78 µM
same,TGI,SK-MEL-5 melanoma,2.75 µM
same,TGI,NCI-H522 lung,2.72 µM
same,TGI,SNB-75 CNS,6.84 µM
same,TGI,MDA-N,2.75 µM
same,TGI,U251 CNS,7.48 µM
same,TGI,SW-620 colon,1.4 µM
same,TGI,HT29 colon,7.07 µM
same,TGI,SK-MEL-28 melanoma,2.97 µM
same,TGI,BT-549 breast,4.34 µM
same,TGI,A549 NSCLC,> 100 µM
same,TGI,MALME-3M melanoma,4.05 µM
same,TGI,NCI-H460 lung,13.8 µM
same,TGI,CAKI-1 renal,9.19 µM
same,TGI,SF-539 CNS,4.51 µM
same,TGI,HCT-116 colon,> 100 µM
same,TGI,OVCAR-5 ovarian,> 100 µM
same,TGI,TK-10 renal,17.5 µM
same,TGI,K-562 leukemia,23.2 µM
same,TGI,SF-268 CNS,6.84 µM
same,TGI,MDA-MB-435,3.09 µM
same,TGI,MOLT-4 leukemia,3.67 µM
same,TGI,KM12 colon,17.3 µM
same,TGI,OVCAR-3 ovarian,8.98 µM
same,TGI,MCF7 breast,3.42 µM
same,TGI,LOX IMVI melanoma,3.91 µM
same,TGI,DU-145 prostate,> 100 µM
same,TGI,T-47D breast,16.3 µM
same,TGI,RPMI-8226 leukemia,5.09 µM
same,TGI,MDA-MB-231 breast,7.59 µM
same,TGI,NCI/ADR-RES ovarian,7.19 µM
same,TGI,ACHN renal,4.6 µM
same,TGI,CCRF-CEM leukemia,6.15 µM
same,TGI,OVCAR-4 ovarian,6.31 µM
same,TGI,UACC-62 melanoma,4.59 µM
same,TGI,HOP-92 NSCLC,3.68 µM
same,TGI,IGROV1 ovarian,8.52 µM
same,TGI,EKVX NSCLC,> 100 µM
same,TGI,SR leukemia,2.63 µM
same,TGI,COLO 205 colon,3.19 µM
COC(=O)C(CCC1CC(OC)N(C(=O)OCc2ccccc2)C1)N=Cc1ccccc1 (stereo unspecified),TGI,UACC-257 melanoma,> 100 µM
same,TGI,HS 578T breast,> 100 µM
same,TGI,SF-295 CNS,> 100 µM
same,TGI,A498 renal,> 100 µM
same,TGI,OVCAR-8 ovarian,> 100 µM
same,TGI,SK-OV-3 ovarian,> 100 µM
same,TGI,UO-31 renal,> 100 µM
same,TGI,M14 melanoma,> 100 µM
same,TGI,HOP-62 NSCLC,> 100 µM
same,TGI,SNB-19 CNS,> 100 µM
same,TGI,HCC-2998 colon,> 100 µM
same,TGI,NCI-H23 lung,> 100 µM
same,TGI,PC-3 prostate,> 100 µM
same,TGI,SN12C renal,> 100 µM
same,TGI,NCI-H226 lung,> 100 µM
same,TGI,786-0 renal,> 100 µM
same,TGI,HL-60(TB) leukemia,> 100 µM
same,TGI,SK-MEL-5 melanoma,83.9 µM
same,TGI,NCI-H522 lung,72.9 µM
same,TGI,SNB-75 CNS,> 100 µM
same,TGI,MDA-N,> 100 µM
same,TGI,U251 CNS,> 100 µM
same,TGI,SW-620 colon,> 100 µM
same,TGI,HT29 colon,> 100 µM
same,TGI,SK-MEL-28 melanoma,> 100 µM
same,TGI,BT-549 breast,> 100 µM
same,TGI,A549 NSCLC,> 100 µM
same,TGI,NCI-H460 lung,> 100 µM
same,TGI,CAKI-1 renal,> 100 µM
same,TGI,SF-539 CNS,> 100 µM
same,TGI,HCT-116 colon,> 100 µM
same,TGI,OVCAR-5 ovarian,> 100 µM
same,TGI,RXF 393 renal,> 100 µM
same,TGI,TK-10 renal,> 100 µM
same,TGI,K-562 leukemia,> 100 µM
same,TGI,SF-268 CNS,> 100 µM
same,TGI,MDA-MB-435,> 100 µM
same,TGI,MOLT-4 leukemia,> 100 µM
same,TGI,KM12 colon,> 100 µM
same,TGI,OVCAR-3 ovarian,> 100 µM
same,TGI,MCF7 breast,> 100 µM
same,TGI,HCT-15 colon,> 100 µM
same,TGI,LOX IMVI melanoma,> 100 µM
same,TGI,DU-145 prostate,> 100 µM
same,TGI,SK-MEL-2 melanoma,78.8 µM
same,TGI,T-47D breast,> 100 µM
same,TGI,RPMI-8226 leukemia,91.7 µM
same,TGI,MDA-MB-231 breast,> 100 µM
same,TGI,NCI/ADR-RES ovarian,> 100 µM
same,TGI,ACHN renal,> 100 µM
same,TGI,CCRF-CEM leukemia,> 100 µM
same,TGI,OVCAR-4 ovarian,> 100 µM
same,TGI,UACC-62 melanoma,> 100 µM
same,TGI,HOP-92 NSCLC,> 100 µM
same,TGI,IGROV1 ovarian,> 100 µM
same,TGI,EKVX NSCLC,> 100 µM
same,TGI,SR leukemia,> 100 µM
same,TGI,COLO 205 colon,78.7 µM
COc1ccc2c3c1O[C@H]1C(=O)C=CC4(n5[nH]c(=O)n(-c6ccccc6)c5=O)C(C2)N(C)CCC314 (stereo partly specified),TGI,HS 578T breast,> 100 µM
same,TGI,SF-295 CNS,> 100 µM
same,TGI,A498 renal,> 100 µM
same,TGI,OVCAR-8 ovarian,> 100 µM
same,TGI,SK-OV-3 ovarian,> 100 µM
same,TGI,UO-31 renal,> 100 µM
same,TGI,M14 melanoma,> 100 µM
same,TGI,HOP-62 NSCLC,> 100 µM
same,TGI,SNB-19 CNS,> 100 µM
same,TGI,NCI-H23 lung,> 100 µM
same,TGI,PC-3 prostate,> 100 µM
same,TGI,SN12C renal,> 100 µM
same,TGI,NCI-H226 lung,> 100 µM
same,TGI,786-0 renal,> 100 µM
same,TGI,HL-60(TB) leukemia,> 100 µM
same,TGI,SK-MEL-5 melanoma,> 100 µM
same,TGI,NCI-H522 lung,> 100 µM
same,TGI,MDA-N,> 100 µM
same,TGI,U251 CNS,> 100 µM
same,TGI,SW-620 colon,> 100 µM
same,TGI,HT29 colon,> 100 µM
same,TGI,SK-MEL-28 melanoma,> 100 µM
same,TGI,BT-549 breast,> 100 µM
same,TGI,A549 NSCLC,> 100 µM
same,TGI,MALME-3M melanoma,> 100 µM
same,TGI,CAKI-1 renal,> 100 µM
same,TGI,SF-539 CNS,> 100 µM
same,TGI,HCT-116 colon,> 100 µM
same,TGI,OVCAR-5 ovarian,> 100 µM
same,TGI,TK-10 renal,> 100 µM
same,TGI,K-562 leukemia,> 100 µM
same,TGI,SF-268 CNS,> 100 µM
same,TGI,MDA-MB-435,> 100 µM
same,TGI,MOLT-4 leukemia,> 100 µM
same,TGI,KM12 colon,> 100 µM
same,TGI,OVCAR-3 ovarian,> 100 µM
same,TGI,MCF7 breast,> 100 µM
same,TGI,HCT-15 colon,> 100 µM
same,TGI,LOX IMVI melanoma,> 100 µM
same,TGI,DU-145 prostate,> 100 µM
same,TGI,SK-MEL-2 melanoma,> 100 µM
same,TGI,T-47D breast,> 100 µM
same,TGI,RPMI-8226 leukemia,> 100 µM
same,TGI,MDA-MB-231 breast,> 100 µM
same,TGI,NCI/ADR-RES ovarian,> 100 µM
same,TGI,ACHN renal,> 100 µM
same,TGI,CCRF-CEM leukemia,> 100 µM
same,TGI,OVCAR-4 ovarian,> 100 µM
same,TGI,UACC-62 melanoma,> 100 µM
same,TGI,HOP-92 NSCLC,> 100 µM
same,TGI,IGROV1 ovarian,> 100 µM
same,TGI,EKVX NSCLC,> 100 µM
same,TGI,SR leukemia,> 100 µM
same,TGI,COLO 205 colon,> 100 µM
